From publication PMC12264554, “Application of preclinical absorption, distribution, metabolism, elimination in vitro techniques for the characterization and compound library optimization of novel antibiotic gallium salophen” (Drug Metabolism and Disposition, 2025)
Like-named read-outs stand apart in the source and are kept apart here.

What was measured:
[1] = Experimental LogP by reverse-phase HPLC method; format: physicochemical; conditions: extrapolated log kw
Source text: LogP was experimentally determined using previously published reverse-phase high-performance liquid chromatography method, and this workflow was adapted using instrumentation described in the previous LC-MS/MS analysis section ([Coutinho et al, 2023]). Briefly, analogs were eluted using isocratic flow with an increasing percentage of organic solvent from 55% to 90% in increments of 5%. The change in the log of the retention factor, log k, was plotted against the fraction of organic solvent. This allowed for extrapolation to the y-intercept, which is when the fraction of organic in the system is zero, or log kw. The same workflow was applied to known compounds with a published logP value to establish a relationship between logP and log kw. This ratio was used to calculate the experimental logP from the log kw of the test compounds. The in silico prediction of logP values was obtained using an online calculator by Molinspiration Cheminformatics (molinspiration.com).

[2] = molecular target: HasA (Pseudomonas aeruginosa, UniProt G3XD33); assay: Kd determination by fluorescence quenching of apo-HasAp; conditions: read-out: HasA Kd; apo-HasAp 1 μM, 20 mM sodium phosphate pH 7.4, 25 °C, one-site binding fit
Description: Wild-type, full-length HasAp was prepared from freshly transformed Escherichia coli BL21(DE3) competent cells as previously described in 4 L of M9 media. Cell pellets were resuspended and lysed with an LM-20 microfluidizer at 18,000 psi. Lysate was clarified by centrifugation and applied to a Q-Sepharose column. HasAp was eluted over a gradient from 20 to 600 mM NaCl in 20 mM Tris-HCl (pH 7.5), and desired fractions determined by SDS-PAGE were pooled. Apo-HasAp was further purified on a Butyl Sepharose Fast Flow column equilibrated with 50 mM sodium phosphate buffer with 0.7 M ammonium sulfate (pH 7.0). Holo-HasAp and other proteins eluted within 2–3 bed volumes of 50 mM sodium phosphate containing 0.5 M ammonium sulfate. Apo-HasAp was then eluted with a linear gradient of sodium phosphate buffer (50–20 mM) containing ammonium sulfate (0.5–0 M). Fractions were analyzed again by SDS-PAGE, and the apo-HasAp was pooled, concentrated (Amicon stirred cell with Ultracel 10 kDa filter), and exchanged into 20 mM sodium phosphate buffer.
Binding affinities were determined using a BioTek Synergy H1 microplate reader in a black 96-well plate. Compounds were solvated in H2O in serial dilutions (100–0.39 μM). One micromolar solution of apo-HasAp 20 mM sodium phosphate buffer (pH 7.4, 25 °C) was titrated into the ligand of interest. Emission spectra were recorded (300–500 nm) after excitation at 280 nm. The decrease in maximum emission was plotted against the ligand concentration (accounting for dilution) and fit to one-site binding using GraphPad Prism v10.

[3] = RBC/PL partitioning equilibrium in whole blood; conditions: for K2EDTA KRBC/PL: pooled K2EDTA whole blood; for K2EDTA KRBC/PL / Heparin KRBC/PL: LC-MS/MS (ICP-MS for Ga^3+); for Heparin KRBC/PL: pooled sodium heparin whole blood
Description: The mixtures were digested at 80 °C for 4 hours and further diluted to a concentration of 6% nitric acid. Gallium (Ga^71) in whole blood, PL, and RBC samples were quantified using an Agilent 7700x ICP-MS instrument (Agilent Technologies). Metal levels were detected using an Octopole Reaction System in He mode. Other ICP-MS parameters include an radio frequency power of 1500 W, on octupole radio frequency of 190 V, an octapole bias of –18 V, a helium gas flow of 4.3 mL/min, and an argon flow of 0.99 L/min. Samples were loaded through a 7700X peristaltic (with a speed of 0.1 rps) and a MicroMist nebulizer. A standard calibration curve was used to derive metal concentrations. The calibration standards from 0–250 ppb were prepared in 6% nitric acid using atomic absorption standards (Sigma). Data analysis and extraction were performed using Agilent’s MassHunter software version 5.1, specifically version D.01.01.
All LC-MS/MS grade solvents were purchased from ThermoFisher. Ammonium bicarbonate was purchased from Sigma Aldrich. Analysis was performed on a Waters I-Class ultra-performance liquid chromatography system connected with a Waters Xevo TQ-XS mass spectrometer. Ten millimolar ammonium bicarbonate, pH 9.4 was used for mobile phase A, and 100% methanol was used for mobile phase B. The column flow rate was set at 0.400 mL/min. Chromatographic separation was performed with a BEH C18 (2.1 × 50 mm, 1.7 μm) column (Waters). […] The total run time was 4 minutes. The column temperature was set to 60 °C, and the autosampler temperature was set to 15 °C. Washing parameters were 800 μL of weak needle wash (acetonitrile [ACN]:Water/50:50) and 1000 μL of strong needle wash (methanol:ACN:2-propanol:formic acid/30:30:40:0.5) after every injection. Transitions used to monitor all drugs in the study are shown in Supplemental Table 1.
Whole blood (either potassium EDTA [K2EDTA] or sodium heparin) was preincubated at 37 °C for 30 minutes before spiking with the analyte. GaSal-5 was made at a stock concentration of 100 μg/mL in water and then spiked at a high concentration (1 μg/mL) and low concentration (100 ng/mL) to determine whether equilibrium was concentration dependent. Samples were then aliquoted and stored in a water bath at 37 °C for 1, 2, 3, 4, and 8 hours or harvested immediately. PL was harvested from samples by centrifuging at 3000 rpm at 4 °C for 10 minutes. PL was transferred to a new tube and considered the PL fraction, whereas the rest of the matrix was considered the RBC fraction. Samples were then either analyzed by LC-MS/MS or ICP-MS. […] For selectivity lot analysis, whole blood from 3 male and 3 female donors were incubated for 2 hours and then analyzed with LC-MS/MS and ICP-MS at a single concentration of 1 μg/mL. Data are presented as average ± SEM, n = 3 per sample, per concentration. Significance was determined by using a paired t test for ICP-MS and LC-MS/MS data (the same sample, different method) or a 2-tailed Student’s t test for different anticoagulants.

[4] = Caco-2 permeability screening; format: in vitro ADME; conditions: for Papp A→B / Papp B→A / efflux ratio at 20 µM: Caco-2, 20 μM; for Papp A→B / Papp B→A: 30 and 60 min, average ± SEM; for Papp A→B: read-out: Papp apical to basolateral; for Papp B→A: read-out: Papp basolateral to apical; for Papp: Caco-2, ranked by Papp against control drugs, read-out: Permeability ranking; for efflux ratio at 20 µM: read-out: Efflux ratio B to A/A to B
Description: Caco-2 cells were received from American Type Culture Collection and certified mycoplasma free. Cells were seeded on transwell plates (CoStar, growth area 0.33 cm^2/well, polycarbonate membrane, 0.33 μm pore size) between passage 20 and 27 and then analyzed between 21 and 25 days after wells were seeded to ensure enterocyte-like differentiation. Before assessing permeability, cells were washed once with Hank’s Balanced Salt Solution buffer, pH 7.4, and then incubated at 37 °C for 30 minutes. Transepithelial electrical resistance (TEER) was measured after equilibration before the experiment using an epithelial volt-ohmmeter (EVOM, World Precision Instruments), and cells were used if TEER > 250 Ω × cm^2. Cells were dosed to measure permeability from basolateral and apical sides at a concentration of 20 μM of test compound and 50 μM of Lucifer yellow. Lucifer yellow was used as a “zero permeability” marker to monitor the integrity of cell barrier. Samples were taken at 0 and 60 minutes from the donor side, and samples were taken at 30 and 60 minutes from the receiver side; media was replenished after the 30-minute sample was taken from both chambers. A calibration curve was prepared by serial dilution using the dosing solution in a 1:5 dilution. […] Samples were prepared for LC-MS/MS analysis by taking 100 μL of sample, adding 1 μM internal standard (GaSal-4 or GaSal-5), and crashing with 400 μL of methanol. Samples were centrifuged at 3000 rpm at 4 °C for 30 minutes, 200 μL of supernatant was transferred to a new plate, and 100 μL of water was added to each sample. Samples were vortexed and analyzed by LC-MS/MS as described earlier. […] To preliminarily evaluate organic cation transporter 1 (OCT1) or P-glycoprotein (P-gp)-dependent transport, transport studies were conducted with and without a 1 μM “inhibitor cocktail” alongside GaSal. […] The Papp for basolateral to apical, Papp apical to basolateral, and efflux ratio were reported for each compound. In order to calculate Papp, the concentration in the sampled time point was determined from the calibration curve and then converted to μg based on the volume of the chamber (0.2 mL for apical, 1.0 mL for basolateral). […] The calculation of Papp was determined using eq. […] Data are presented as the average ± SEM for each compound analyzed as n = 3 on 2 different days with 2 different cell line passages, for n = 6 total. GaSal is n = 3 on 3 different cell line passages since this was used as a test compound for the inhibition cocktail experiments.

[5] = calculated B/P, cited from earlier work

HasA, sequence (G3XD33 entry or part of it): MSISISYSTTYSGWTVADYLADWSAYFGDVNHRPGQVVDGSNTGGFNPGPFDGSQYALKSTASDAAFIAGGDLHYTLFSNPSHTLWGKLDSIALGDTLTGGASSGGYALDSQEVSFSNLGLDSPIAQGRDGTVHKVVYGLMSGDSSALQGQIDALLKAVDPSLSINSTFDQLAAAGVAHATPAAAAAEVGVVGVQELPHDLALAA

| SMILES | logP [1] | Kd [2] | K2EDTA KRBC/PL ([3]; 0.1 μg/mL, 2 hours) | Heparin KRBC/PL ([3]; 0.1 μg/mL, 2 hours) | K2EDTA KRBC/PL ([3]; 1 μg/mL, 2 hours) | Heparin KRBC/PL ([3]; 1 μg/mL, 2 hours) | Papp A→B [4] | Papp B→A [4] | Papp [4] | KRBC/PL (B/P ratio) ([5]; ref (Cao et al., 2023)) | other results |
| --- | --- | --- | --- | --- | --- | --- | --- | --- | --- | --- | --- |
| OCCCOc1ccc(/C=N/c2ccccc2/N=C/c2ccc(OCCCO)cc2O)c(O)c1.[Ga+3] [GaSal-11] | 4.04 | 0.57 ± 0.03 µM | 0.05 ± 0.03 | 0.91 ± 0.19 | 0.05 ± 0.02 | 1.15 ± 0.19 | < 0.1 nm/s | 7.2 ± 1.2 nm/s | < 11.2 nm/s |  |  |
| CC(=Nc1ccccc1/N=C/c1ccc(OCCCO)cc1O)c1ccccc1O.[Ga+3] [GaSal-12] | 3.19 | 0.52 ± 0.01 µM | 0.11 ± 0.06 | 0.86 ± 0.31 | 0.13 ± 0.04 | 1.48 ± 0.10 | 0.5 ± 0.1 nm/s | 1.7 ± 0.6 nm/s | < 11.2 nm/s |  | efflux ratio at 20 µM ([4]; human): 3.4 |
| CCCCOc1ccc(/C=N/c2ccccc2/N=C/c2ccc(OCCCC)cc2O)c(O)c1.[Ga+3] [GaSal-15] | 5.99 | 1.98 ± 0.17 µM | 5.40 ± 0.13 | 0.83 ± 0.01 | 3.81 ± 0.97 | 1.24 ± 0.03 | 7.9 ± 0.6 nm/s | 71 ± 11.3 nm/s | < 11.2 nm/s |  | efflux ratio at 20 µM ([4]; human): 9.02 |
| O=[N+]([O-])[O-].O=[N+]([O-])[O-].O=[N+]([O-])[O-].[Ga+3] [Ga^3+, gallium nitrate, reference compound] |  |  |  |  |  |  |  |  |  |  | hemolysis [3]: > 5%; ICP-MS calculated KRBC/PL ([3]; 1 μg/mL, sodium heparin whole blood, 6 selectivity lots, 2 hours): 0.08 ± 0.01 |
| [Pb] [Lead] |  |  |  |  |  |  |  |  |  | 1.13 |  |
| CN(C)C(=O)C(CCN1CCC(O)(c2ccc(Cl)cc2)CC1)(c1ccccc1)c1ccccc1 [Loperamide, reference compound] |  |  |  |  |  |  |  |  |  |  | efflux ratio at 60 min, 20 μM ([4]; human, Caco-2, pH 7.4, known drug standards, read-out: Efflux Ratio B to A/ A to B): 4.22; Papp A→B at 60 min, 20 μM ([4]; human, Caco-2, pH 7.4, known drug standards, read-out: Papp Apical to Basolateral): 35.1 ± 0.4 nm/s; Papp B→A at 60 min, 20 μM ([4]; human, Caco-2, pH 7.4, known drug standards, read-out: Papp Basolateral to Apical): 148 ± 21.2 nm/s; Papp at 60 min, 20 μM ([4]; human, Caco-2, pH 7.4, known drug standards, read-out: Permeability Ranking): 35.1 to 53.3 nm/s |
| [Mn+2] [Manganese] |  |  |  |  |  |  |  |  |  |  | KRBC/PL (B/P ratio) ([5]; ref (Smith et al., 2007)): 0.2 |
| [Ni] [Nickel] |  |  |  |  |  |  |  |  |  | 0.50 |  |
| [Se] [Selenium] |  |  |  |  |  |  |  |  |  | 1.34 |  |
| [Sr+2] [Strontium] |  |  |  |  |  |  |  |  |  | 0.42 |  |
